This passage reports IC50 results from doi:10.1101/2021.06.10.447950v1 (biorxiv, 2021).

The structures appear in SMILES notation.

What all share (assay): fluorogenic peptidase assay, initial rate
Common to all, as to format: biochemical

The target in assay [1] is cathepsin B (Homo sapiens, UniProt P07858).
Assay [2] concerns the target T1, cathepsin K (Homo sapiens, UniProt P43235).
T1 sequence (P43235 115-329): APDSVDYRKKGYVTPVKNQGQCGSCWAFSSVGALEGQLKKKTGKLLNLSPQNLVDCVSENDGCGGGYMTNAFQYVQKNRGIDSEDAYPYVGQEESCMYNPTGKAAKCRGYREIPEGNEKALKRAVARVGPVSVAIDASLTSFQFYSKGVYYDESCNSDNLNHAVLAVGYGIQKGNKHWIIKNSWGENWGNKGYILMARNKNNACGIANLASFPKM

Assay [3] addresses cathepsin L (Homo sapiens, UniProt P07711).

Chain of cathepsin L (P07711 114-288): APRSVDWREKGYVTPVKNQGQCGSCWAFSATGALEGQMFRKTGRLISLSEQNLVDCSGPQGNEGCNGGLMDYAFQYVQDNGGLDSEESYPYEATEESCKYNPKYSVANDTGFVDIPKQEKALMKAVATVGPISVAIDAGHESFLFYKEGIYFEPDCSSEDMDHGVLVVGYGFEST
Chain of cathepsin L (P07711 292-333): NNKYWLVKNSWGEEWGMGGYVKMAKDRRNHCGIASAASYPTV

Broadly, the IC50 is the concentration that gives 50% inhibition. Low readings indicate inhibition by little substance, high ones a need for much substance. Take `C[C@@H](OC(C)(C)C)[C@H](NC(=O)OCc1ccccc1)C(=O)N[C@@H](CC1CCCCC1)C(=O)N[C@H](C=O)C[C@@H]1CCNC1=O` [MPI8]: 230 ± 20 nM corresponded to half-maximal inhibition in assay [1] (IC50).
For `C[C@@H](OC(C)(C)C)[C@H](NC(=O)OCc1ccccc1)C(=O)N[C@@H](Cc1ccccc1)C(=O)N[C@H](C=O)C[C@@H]1CCNC1=O` [MPI7], the results for the IC50 in assay [1], in assay [2] and in assay [3] were 64 ± 7 nM, 51 ± 6 nM and 0.61 ± 0.15 nM, respectively.
On the same counts, the results for `O=C[C@H](C[C@@H]1CCNC1=O)NC(=O)[C@H](Cc1ccccc1)NC(=O)OCc1ccccc1` [MPI1] are 25 ± 2 nM, 0.88 ± 0.12 nM and 0.079 ± 0.029 nM.
Taken in the same sequence, the figures for `O=C[C@H](C[C@@H]1CCNC1=O)NC(=O)[C@H](Cc1ccccc1)NC(=O)/C=C/c1ccc(Cl)cc1F` [MPI2] were 4.1 ± 0.4 nM, 0.78 ± 0.06 nM and 0.19 ± 0.03 nM.
As to `O=C[C@H](C[C@@H]1CCNC1=O)NC(=O)[C@H](CC1CCCCC1)NC(=O)c1cc2ccccc2[nH]1` [11a], the half-inhibitory concentration (IC50) in assay [1] is 4.9 ± 0.4 nM; in assay [2], 1.4 ± 0.2 nM; in assay [3] it was 0.14 ± 0.04 nM.
On the same counts, the results for `CC(C)[C@H](NC(=O)OCc1ccccc1)C(=O)N[C@@H](CC1CCCCC1)C(=O)N[C@H](C=O)C[C@@H]1CCNC1=O` [MPI5] are 80 ± 6 nM, 134 ± 18 nM and 2.3 ± 1.9 nM.
Taken in the same sequence, the figures for `CC(C)C[C@H](NC(=O)[C@@H](NC(=O)OCc1ccccc1)C(C)C)C(=O)N[C@H](C=O)C[C@@H]1CCNC1=O` [MPI3] were 112 ± 10 nM, 1.18 ± 0.18 nM and 0.3 ± 0.07 nM.
Taken in the same sequence, the figures for `CC(C)C[C@H](NC(=O)[C@@H](NC(=O)OCc1ccccc1)[C@@H](C)OC(C)(C)C)C(=O)N[C@H](C=O)C[C@@H]1CCNC1=O` [MPI6] were 380 ± 21 nM, 1.07 ± 0.21 nM and 0.45 ± 0.08 nM.
As to `CC(C)C[C@H](NC(=O)[C@@H](NC(=O)/C=C/c1ccc(Cl)cc1F)C(C)C)C(=O)N[C@H](C=O)C[C@@H]1CCNC1=O` [MPI9], the figures for the half-maximal inhibitory concentration (IC50) in assay [1], in assay [2] and in assay [3] were 147 ± 10 nM, 1.5 ± 0.2 nM and 0.56 ± 0.06 nM, respectively.
On the same counts, the results for `CC(C)[C@H](NC(=O)OCc1ccccc1)C(=O)N[C@@H](Cc1ccccc1)C(=O)N[C@H](C=O)C[C@@H]1CCNC1=O` [MPI4] are 46 ± 3 nM, 49 ± 16 nM and 0.33 ± 0.04 nM.
